Source: US6479493B1, “Methods for treatment of type I diabetes” (Cell Pathways, Inc., priority 2001, dated 2002)
Where a name gives a salt, the structure may show the parent alone.

Assays:
[1] = system: U937 cells; assay: apoptosis induction of U937 cells, active caspase 3 indirect immunofluorescence; assay type: cell-based; details: 1 μM, 24 hours
Method: U937 cells (from ATCC Rockville, Md.) were grown in RPMI media supplemented with 5% FCS, glutamine, antibiotic/antimycotic and sodium pyruvate. Total RNA was isolated from two U937 cultures, one treated with 5 nM TPA for 48 hours and one grown in normal media as listed above, using the Rouche High Pure RNA Isolation Kit (cat #1 828 665) as per manufacturers protocol. cDNA was then synthesized from the total RNA using GibcoBRL SuperscriptII (Cat #18064-022) reverse transcriptase as per manufacturers protocol. The resulting cDNA was used as a template for RT-PCR reactions using primer sets specific for PDE2 (forward: […], reverse: […]) or PDE5 (forward: […], reverse: […]). mRNA for PDE2 and 5 were both present in the untreated U937 cells. Upon treatment with TPA, the relative amounts of PDE2 mRNA increased 5 fold. Therefore, U937 cells treated with TPA and driven to differentiate into an activated macrophage like state have elevated levels of PDE2 mRNA (see FIG. 1).
The presence of PDE2 and PDE5 protein within U937 cells was confirmed by indirect immunofluorescence (IIF). U937 cells were cultured as above. Two U937 cultures, one grown in the presence of 5 nM TPA for 48 hours and one grown in normal media were processed. All cultures were collected by centrifugation (Shandon Cytospin, 2 minutes @600 rpm) onto poly-L lysine-coated slides and immediately fixed in fresh 3% paraformaldehyde buffered in PBS for 10 minutes. Adherent cultures were grown on coverslips and fixed as above. Cells were permeablized in 0.2% Triton-100 for 2 minutes. Slides were blocked with blocking buffer (5% goat serum, 5% glycerol, 1% gelatin from cold water fish skin and 0.04% NaN3 in PBS) for 1 hour at room temperature.
Slides were then incubated for 1 hour at 37° C. in a humid chamber with antibodies specific for PDE2 (generated in a sheep against the peptide […]) or PDE5 (generated in sheep against the peptide […]). […]
The level of apoptosis in U937 cells was quantified by scoring 500 consecutive cells for the presence of active caspase 3. […]

[2] = system: rats; assay: seven-day dose-range finding study in rats; assay type: in vivo, rat; details: 7 days
[3] = target: PDE 5 (Homo sapiens, UniProt O76074); assay: competitive binding (with cGMP) to PDE5
[4] = system: PDE1; assay: PDE inhibition, similar protocols; assay type: biochemical

CC1=C(CC(=O)NCc2ccccc2)c2cc(F)ccc2/C1=C\c1ccncc1 [Example 38, (Z)-5-Fluoro-2-methyl-(4-pyridylidene)-3-(N-benzyl)indenylacetamide Hydrochloride]
apoptosis by active caspase 3 image (FIG. 8) [1]: undergoing apoptosis as reflected by the presence of active caspase 3 | signs of toxicity ([2]; 50 mg/kg/day): no observable signs of toxicity | treatment-related effects ([2]; 500 mg/kg/day): limited to an increase in absolute and relative liver weights in female rats | treatment-related effects ([2]; 2000 mg/kg/day): labored breathing and/or abnormal respiratory sounds, decreased weights gains and food consumption in male rats, and increased liver weights in female rats | hematology, blood chemistry, microscopic pathology ([2]; any dose level (50, 500, 2000 mg/kg/day)): No hematological or blood chemistry changes nor any microscopic pathology changes | competitive (with cGMP) binding to PDE 5 [3]: does competitively (with cGMP) bind to PDE 5 | IC50 [4]: 3000 nM
